Measurements taken from article PMC12028158, “Synthesis and In Vitro Evaluation of the Anticancer Effect of Novel Phosphonium Vindoline Derivatives” (International Journal of Molecular Sciences, 2025).

Legend:
Assay type in all cases: cell-based
HL-60(TB) = test: NCI60 five-dose screen; conditions: Homo sapiens, HL-60
K-562 = test: NCI60 five-dose screen; conditions: Homo sapiens, K562
EKVX = test: NCI60 five-dose screen; conditions: Homo sapiens
NCI-H226 = test: NCI60 five-dose screen; conditions: Homo sapiens, NCI-H226
HCT-116 = test: NCI60 five-dose screen; conditions: Homo sapiens, HCT-116
HCT-15 [1] = test: NCI60 five-dose screen; conditions: Homo sapiens, HCT-15
SF-268 = test: NCI60 five-dose screen; conditions: Homo sapiens, SF-268
M14 = test: NCI60 five-dose screen; conditions: Homo sapiens, M14
MDA-MB-435 = test: NCI60 five-dose screen; conditions: Homo sapiens, MDA-MB-435
SK-MEL-28 = test: NCI60 five-dose screen; conditions: Homo sapiens, SK-MEL-28
SK-MEL-5 [2] = test: NCI60 five-dose screen; conditions: Homo sapiens, SK-MEL-5
UACC-62 [3] = test: NCI60 five-dose screen; conditions: Homo sapiens, UACC-62
IGROV1 [4] = test: NCI60 five-dose screen; conditions: Homo sapiens, IGROV-1
OVCAR-4 = test: NCI60 five-dose screen; conditions: Homo sapiens, OVCAR-4
NCI/ADR-RES [5] = test: NCI60 five-dose screen; conditions: Homo sapiens
786-0 [6] = test: NCI60 five-dose screen; conditions: Homo sapiens, 786-0
A498 [7] = test: NCI60 five-dose screen; conditions: Homo sapiens, A498
CAKI-1 = test: NCI60 five-dose screen; conditions: Homo sapiens, CAKI-1
RXF 393 = test: NCI60 five-dose screen; conditions: Homo sapiens, RXF 393
SN12C [8] = test: NCI60 five-dose screen; conditions: Homo sapiens
DU-145 = test: NCI60 five-dose screen; conditions: Homo sapiens, DU-145
HS 578T = test: NCI60 five-dose screen; conditions: Homo sapiens, Hs-578T
BT-549 [9] = test: NCI60 five-dose screen; conditions: Homo sapiens, BT-549
Leukemia panel = test: NCI60 five-dose screen, panel mean; conditions: Homo sapiens, read-out: Mean GI50
CNS Cancer panel = test: NCI60 five-dose screen, panel mean; conditions: Homo sapiens, read-out: Mean GI50
Breast Cancer panel = test: NCI60 five-dose screen, panel mean; conditions: Homo sapiens, read-out: Mean GI50
MOLT-4 = test: NCI60 one-dose screen; conditions: Homo sapiens, MOLT-4, read-out: Growth percent
SR = test: NCI60 one-dose screen; conditions: Homo sapiens, read-out: Growth percent
HOP-92 = test: NCI60 one-dose screen; conditions: Homo sapiens, HOP-92, read-out: Growth percent
NCI-H23 = test: NCI60 one-dose screen; conditions: Homo sapiens, NCI-H23, read-out: Growth percent
NCI-H322M = test: NCI60 one-dose screen; conditions: Homo sapiens, read-out: Growth percent
NCI-H460 = test: NCI60 one-dose screen; conditions: Homo sapiens, NCI-H460, read-out: Growth percent
HCT-15 [10] = test: NCI60 one-dose screen; conditions: Homo sapiens, HCT-15, read-out: Growth percent
KM12 = test: NCI60 one-dose screen; conditions: Homo sapiens, KM12, read-out: Growth percent
SF-539 = test: NCI60 one-dose screen; conditions: Homo sapiens, SF-539, read-out: Growth percent
MALME-3M = test: NCI60 one-dose screen; conditions: Homo sapiens, Malme-3M, read-out: Growth percent
SK-MEL-5 [11] = test: NCI60 one-dose screen; conditions: Homo sapiens, SK-MEL-5, read-out: Growth percent
UACC-62 [12] = test: NCI60 one-dose screen; conditions: Homo sapiens, UACC-62, read-out: Growth percent
IGROV1 [13] = test: NCI60 one-dose screen; conditions: Homo sapiens, IGROV-1, read-out: Growth percent
OVCAR-8 = test: NCI60 one-dose screen; conditions: Homo sapiens, OVCAR-8, read-out: Growth percent
NCI/ADR-RES [14] = test: NCI60 one-dose screen; conditions: Homo sapiens, read-out: Growth percent
786-0 [15] = test: NCI60 one-dose screen; conditions: Homo sapiens, 786-0, read-out: Growth percent
A498 [16] = test: NCI60 one-dose screen; conditions: Homo sapiens, A498, read-out: Growth percent
SN12C [17] = test: NCI60 one-dose screen; conditions: Homo sapiens, read-out: Growth percent
MDA-MB-231/ATCC = test: NCI60 one-dose screen; conditions: Homo sapiens, MDA-MB-231, read-out: Growth percent
BT-549 [18] = test: NCI60 one-dose screen; conditions: Homo sapiens, BT-549, read-out: Growth percent
[19] = system: 60 human tumor cell lines (NCI60); test: NCI60 one-dose screen, overall mean; conditions: for activity at 10 µM: Homo sapiens, 60 cell, read-out: Mean growth percent

**Q.** Which results are given for `CCC12C=CCN3CCC4(c5ccc(OC)cc5N(C)C4C(O)(C(=O)OC)C1OC(=O)CCC[P+](c1ccc(C)cc1)(c1ccc(C)cc1)c1ccc(C)cc1)C32` (centres unmarked) [9a]?
**A.** GI50 (HL-60(TB)): 162 nM; GI50 (K-562): 291 nM; GI50 (EKVX): 534 nM; GI50 (NCI-H226): 521 nM; GI50 (HCT-116): 307 nM; GI50 (HCT-15 [1]): 1.62 µM; GI50 (SF-268): 343 nM; GI50 (M14): 456 nM; GI50 (MDA-MB-435): 331 nM; GI50 (SK-MEL-28): 361 nM; GI50 (SK-MEL-5 [2]): 532 nM; GI50 (UACC-62 [3]): 275 nM; GI50 (IGROV1 [4]): 383 nM; GI50 (OVCAR-4): 370 nM; GI50 (NCI/ADR-RES [5]): 8.87 µM; GI50 (786-0 [6]): 1060 nM; GI50 (A498 [7]): 1630 nM; GI50 (CAKI-1): 1870 nM; GI50 (RXF 393): 279 nM; GI50 (SN12C [8]): 291 nM; GI50 (DU-145): 457 nM; GI50 (HS 578T): 344 nM; GI50 (BT-549 [9]): 247 nM; GI50 (Leukemia panel): 260 nM; GI50 (CNS Cancer panel): 360 nM; GI50 (Breast Cancer panel): 270 nM; activity at 10 µM (MOLT-4): -45.1%; activity at 10 µM (SR): 5.74%; activity at 10 µM (HOP-92): -83.2%; activity at 10 µM (NCI-H23): -90.7%; activity at 10 µM (NCI-H322M): -98.4%; activity at 10 µM (NCI-H460): -85.2%; activity at 10 µM (HCT-15 [10]): -91%; activity at 10 µM (KM12): -76.1%; activity at 10 µM (SF-539): -96.6%; activity at 10 µM (MALME-3M): -94.4%; activity at 10 µM (SK-MEL-5 [11]): -99.4%; activity at 10 µM (UACC-62 [12]): -96.8%; activity at 10 µM (IGROV1 [13]): -89.5%; activity at 10 µM (OVCAR-8): -85%; activity at 10 µM (NCI/ADR-RES [14]): 18.1%; activity at 10 µM (786-0 [15]): -88%; activity at 10 µM (A498 [16]): -88.6%; activity at 10 µM (SN12C [17]): -88.1%; activity at 10 µM (MDA-MB-231/ATCC): -94.8%; activity at 10 µM (BT-549 [18]): -96.9%; activity at 10 µM [19]: -78.6%; average reduction / average cell death ([19]; one-dose, 10 µM, average over cell lines): more than 70%

**Q.** `CC[C@]12C=CCN3CC[C@@]4(c5ccc(OC)cc5N(C)[C@H]4[C@@](O)(C(=O)OC)[C@@H]1OC(=O)CCC[P+](c1ccccc1)(c1ccccc1)c1ccccc1OC)[C@@H]32` [9f] was tested. Which GI50 (HL-60(TB)) did it give?
**A.** Its GI50 is 170 nM.

**Q.** What about the GI50 (K-562) of the same compound?
**A.** The GI50 was 125 nM.

**Q.** What about the GI50 (EKVX) of the same compound?
**A.** Its GI50 is 1220 nM.

**Q.** And the GI50 (NCI-H226)?
**A.** Its GI50 is 1210 nM.

**Q.** What about the GI50 (HCT-116) of the same compound?
**A.** The GI50 was 383 nM.

**Q.** And the GI50 (HCT-15 [1])?
**A.** The GI50 was 9.07 µM.

**Q.** What about the GI50 (SF-268) of the same compound?
**A.** The GI50 was 372 nM.

**Q.** What about the GI50 (M14) of the same compound?
**A.** Its GI50 is 1060 nM.

**Q.** What about the GI50 (MDA-MB-435) of the same compound?
**A.** The GI50 was 299 nM.

**Q.** What about the GI50 (SK-MEL-28) of the same compound?
**A.** The GI50 was 506 nM.

**Q.** And the GI50 (SK-MEL-5 [2])?
**A.** Its GI50 is 777 nM.

**Q.** What about the GI50 (UACC-62 [3]) of the same compound?
**A.** Its GI50 is 286 nM.

**Q.** And the GI50 (IGROV1 [4])?
**A.** The GI50 was 510 nM.

**Q.** And the GI50 (OVCAR-4)?
**A.** Its GI50 is 540 nM.

**Q.** What about the GI50 (NCI/ADR-RES [5]) of the same compound?
**A.** Its GI50 is 26.1 µM.

**Q.** And the GI50 (786-0 [6])?
**A.** Its GI50 is 1980 nM.

**Q.** And the GI50 (A498 [7])?
**A.** Its GI50 is 2650 nM.

**Q.** What about the GI50 (CAKI-1) of the same compound?
**A.** The GI50 was 1900 nM.

**Q.** And the GI50 (RXF 393)?
**A.** The GI50 was 247 nM.

**Q.** And the GI50 (SN12C [8])?
**A.** Its GI50 is 325 nM.

**Q.** And the GI50 (DU-145)?
**A.** The GI50 was 418 nM.

**Q.** And the GI50 (HS 578T)?
**A.** The GI50 was 473 nM.

**Q.** And the GI50 (BT-549 [9])?
**A.** Its GI50 is 262 nM.

**Q.** What about the GI50 (Leukemia panel) of the same compound?
**A.** Its GI50 is 220 nM.

**Q.** And the GI50 (CNS Cancer panel)?
**A.** Its GI50 is 570 nM.

**Q.** What about the GI50 (Breast Cancer panel) of the same compound?
**A.** The GI50 was 310 nM.

**Q.** And the activity at 10 µM (MOLT-4)?
**A.** Its activity at 10 µM is 21.2%.

**Q.** And the activity at 10 µM (SR)?
**A.** The activity at 10 µM was -7.49%.

**Q.** What about the activity at 10 µM (HOP-92) of the same compound?
**A.** The activity at 10 µM was -58.4%.

**Q.** What about the activity at 10 µM (NCI-H23) of the same compound?
**A.** The activity at 10 µM was -57.8%.

**Q.** What about the activity at 10 µM (NCI-H322M) of the same compound?
**A.** Its activity at 10 µM is 25.9%.

**Q.** What about the activity at 10 µM (NCI-H460) of the same compound?
**A.** Its activity at 10 µM is -26.9%.

**Q.** What about the activity at 10 µM (HCT-15 [10]) of the same compound?
**A.** The activity at 10 µM was 30.7%.

**Q.** What about the activity at 10 µM (KM12) of the same compound?
**A.** Its activity at 10 µM is -93.4%.

**Q.** What about the activity at 10 µM (SF-539) of the same compound?
**A.** The activity at 10 µM was -93.8%.

**Q.** And the activity at 10 µM (MALME-3M)?
**A.** Its activity at 10 µM is -96.7%.

**Q.** And the activity at 10 µM (SK-MEL-5 [11])?
**A.** The activity at 10 µM was -98.4%.

**Q.** What about the activity at 10 µM (UACC-62 [12]) of the same compound?
**A.** Its activity at 10 µM is -73.2%.

**Q.** And the activity at 10 µM (IGROV1 [13])?
**A.** The activity at 10 µM was -43.2%.

**Q.** What about the activity at 10 µM (OVCAR-8) of the same compound?
**A.** Its activity at 10 µM is 6.9%.

**Q.** What about the activity at 10 µM (NCI/ADR-RES [14]) of the same compound?
**A.** The activity at 10 µM was 75.9%.

**Q.** And the activity at 10 µM (786-0 [15])?
**A.** Its activity at 10 µM is -74.1%.

**Q.** What about the activity at 10 µM (A498 [16]) of the same compound?
**A.** Its activity at 10 µM is -10.4%.

**Q.** What about the activity at 10 µM (SN12C [17]) of the same compound?
**A.** The activity at 10 µM was -80.6%.

**Q.** What about the activity at 10 µM (MDA-MB-231/ATCC) of the same compound?
**A.** Its activity at 10 µM is -94.5%.

**Q.** What about the activity at 10 µM (BT-549 [18]) of the same compound?
**A.** The activity at 10 µM was -64.2%.

**Q.** And the activity at 10 µM [19]?
**A.** Its activity at 10 µM is -45.4%.
